From US20240300975A1, “DIMETHYL-SUBSTITUTED THIAZOLOLACTAM COMPOUND AND USE THEREOF” (D3 Bio (Wuxi) Co., Ltd., priority 2021, published 2024)
≈ marks a conversion by molar mass, not a printed value. Where two headings read alike, the source gives them in different places.

Tests used:
HT29 tumor cells = assay: In vitro cell proliferation inhibition (CellTiterGlo); format: cell-based; settings: Homo sapiens, HT-29
Method: The ability of compounds to inhibit the proliferation of HT29 tumor cells was measured.
The assay compound was dissolved in 100% DMSO to prepare 10 mM stock solution.
• a) UV light of a biological safety cabin was turned on, and 30 minutes were counted down; • b) In a 37° C. water bath, RPMI1640 medium and trypsin were preheated; • c) After completion of the UV irradiation, the biological safety cabin was opened. The preheated medium, trypsin and phosphate buffered saline (PBS), etc. were wiped with alcohol and placed in the biological safety cabin; • d) HT29 cells were removed from the incubator, and the old medium was removed in biological safety cabin. 10 ml of PBS was added. […] The culture vessel was shaken horizontally so that the trypsin evenly covered the cells at the bottom, and placed in an incubator for 2 minutes; • f) Cell digestion was stopped with complete medium, and the cell suspension was pipetted to homogeneity and counted; • g) According to the result of cell counting, the density of cell suspension was adjusted to 1500 cells per well, and the cell suspension was seeded at 50 μl per well; • h) The stock solution of compounds was serially diluted in DMSO solution, and compounds were added to cell plate using Tecan; • i) The compound-added cell plate and CellTiterGlo were equilibrated at room temperature, and 25 microliters of CellTiterGlo was then added to each well. […]

[1] = Solubility study (HPLC-UV, 24 h shaking); format: physicochemical; settings: 25 °C, aqueous buffer, kinetic from dmso stock, 2% DMSO, max 200 μM
Method: The solubility of a compound was determined to evaluate the solubility property of the compound.
• 1) Buffer A (pH 2.0): 50 mM phosphate buffer, pH 2.0; Buffer B (pH 6.5): 50 mM phosphate buffer, pH 6.5; Buffer C (pH 7.4): 50 mM phosphate buffer, pH 7.4; • 2) Preparation of standard solution: • a) 50% acetonitrile solution and 50% buffer solution were mixed to obtain a diluent; • b) 10 mM (10 μL/compound) compound stock solution was added to the diluent (490 μL/compound) to obtain 200 μM detection standard solution; • c) The 200 μM UV detection standard solution was diluted with 10-fold and 200-fold volume of diluents to obtain 20 μM and 1 μM UV standard solutions, respectively; • d) 1 μM, 20 μM, and 200 μM UV standard solutions were used as standard solutions for solubility assay.
• a) The compound was dissolved in DMSO to prepare a 10 mM stock solution. […] The pH of the corresponding solubility solutions was 2.0, 6.5 and 7.4, respectively. The theoretical maximum concentration of the assay compound is 200 μM with 2% DMSO; • c) The plate was shaken in a shaker at room temperature (25±2° C.) at 600 rpm for 24 hours; • d) 200 μL of the solution was pipetted from the 96-well plate, filtered with suction by a vacuum suction filtration device, and transferred into a new 96-well plate as an assay sample; • e) The compound concentration was determined using HPLC-UV.
• f) Three UV standard solutions from low concentration to high concentration (1 μM, 20 μM, 200 μM) were injected into HPLC, and then the assay sample of the compound to be assayed was injected; • g) The UV chromatographic peaks were integrated, and the solubility of the sample was calculated.

monkey plasma albumin = assay: Plasma protein binding (PPB), monkey plasma; format: in vitro ADME; settings: ultracentrifugation, 37° C., 4 h
Method: The binding degree of the assay compound to human/mouse/rat/canine/monkey plasma albumin was studied.
• 1) Matrix preparation: on the day of the assay, plasma was thawed in cold water and centrifuged at 3220 rpm for 5 min to remove all clots. The pH of the resulting plasma was measured and adjusted to 7.4±0.1 using 1% phosphoric acid or 1N sodium hydroxide as needed. • 2) Dilution procedure for the assay compound: the assay compound was dissolved in dimethyl sulfoxide (DMSO) to prepare stock solutions with concentrations of 10 mM and 2 mM, respectively. A 40 μM working solution was prepared by diluting 2 μL of stock solution (2 mM) with 98 μL of DMSO. A 400 μM working solution of the control compound was prepared by diluting 10 μL of stock solution with 240 μL of DMSO. The working solution of the compound (5 μL) was mixed well with a blank matrix (995 μL) at a ratio of 1:200 to prepare a loading matrix.
• a) An equal volume of 30 μL of loading matrix (n=2) was transferred to a sample collection plate to prepare a time 0 (TO) sample for residue determination. The sample was immediately matched with the corresponding blank buffer to a final volume of 60 μL, and the volume ratio of plasma to buffer in each well was 1:1. […] The mixture was centrifuged at 4000 rpm for 20 min and 100 μL of supernatant from each sample was analyzed by LC-MS/MS.

For `Cc1cccc(CN2C(=O)c3nc(-c4nc(Nc5ccnn5C)ncc4C)sc3C2(C)C)n1` [WX001], which IC50 (HT29 tumor cells) is on record?
The IC50 was 21 nM.

And the solubility at 24 h ([1]; 50 mM phosphate buffer pH 2.0, 25±2° C., read-out: Solubility pH = 2.0)?
Its solubility at 24 h is greater than 200 µM.

And the solubility at 24 h ([1]; 50 mM phosphate buffer pH 6.5, 25±2° C., read-out: Solubility pH = 6.5)?
The solubility at 24 h was 6.2 µM (≈ 2.86 µg/mL).

What about the solubility at 24 h ([1]; 50 mM phosphate buffer pH 7.4, 25±2° C., read-out: Solubility pH = 7.4) of the same compound?
The solubility at 24 h was 7.08 µM (≈ 3.26 µg/mL).

What about the “Plasma protein binding rate (unbound %)” value (monkey plasma albumin) of the same compound?
Its value is 2.6%.
